Reference: US12128111B2, “Glyco-metal-organic frameworks-based hepatic targeted therapeutic drug and preparation method thereof” (Jiangnan University, priority 2019, dated 2024)

Tests used:
Huh7 cells [1] = experiment: Calcein-AM/PI live and dead staining, in vitro therapeutic effect; format: cell-based, human; conditions: 10 μg/mL DOX, 60 μg/mL PCN-224, 70 μg/mL DOX@PCN-224 or DOX@Gal-PCN-224
Procedure: (§1) The in vitro therapeutic effect of the inorganic nanomaterial DOX@Gal-PCN-224 was detected by the live and death staining method and the corresponding MTT experiment.
(§2) Human hepatoma cells Huh7 were inoculated in a laser confocal culture dish (35 mm) at the density of 8×10^4 per well. After culturing for 24 hours, the cells were incubated with a medium containing 10 μg/mL DOX, 60 μg/mL PCN-224, 70 μg/mL DOX@PCN-224 (with the drug loading ratio of 14.2, and the DOX content of about 10 μg/mL) or 70 μg/mL DOX@Gal-PCN-224 (with the drug loading ratio of 14.2, and the DOX content of about 10 μg/mL) respectively for 24 hours. Then the light group was irradiated with a 660 nm light source for 10 min. After incubating for 24 hours, Calcein-AM/PI live and dead co-staining was performed. Finally, the cells were observed under the confocal laser. After the same treatment, the therapeutic effect of each group was further quantified by the MTT experiment.

Huh7 cells [2] = experiment: MTT in vitro therapeutic effect; format: cell-based, human; conditions: 10 μg/mL DOX, 60 μg/mL PCN-224, 70 μg/mL DOX@PCN-224 or DOX@Gal-PCN-224
Procedure: as §1, §2

subcutaneous solid tumor = experiment: Inhibition of tumor growth in subcutaneous solid tumor mouse models; format: in vivo, BALB/c nude mice; conditions: no laser; tail vein, DOX 2 mg/kg, PCN-224 12 mg/kg, DOX@PCN-224 and DOX@Gal-PCN-224 14 mg/kg; last day (day 21) versus saline
Procedure: To construct subcutaneous solid tumor mouse models, male BALB/c nude mice with the average weight of 14-17 g at the age of 4 weeks were inoculated with 0.1 ml of 6×10^6 cells/ml PBS at the right gluteus. After four weeks, when the tumor size exceeded 200 mm^3 (volume=0.52×tumor length×tumor width^2), the mice were divided into 2 groups with 5 mice in each group. The DOX@PCN-224-RhB (0.1 mL 0.4 mg/mL) and DOX@Gal-PCN-224-RhB (0.1 mL 0.4 mg/ml) were injected into the tail vein respectively. The fluorescence signal of RhB was detected by a small animal imager (Bruker In Vivo Xtreme II) at set time points (3, 6, 12, 24, 48 hours). Then the mice were sacrificed, the heart, liver, spleen, lung and kidney were isolated, and the RhB fluorescence signal of each organ was detected.
When the subcutaneous tumor size of the mice exceeded 50 mm^3, the mice were randomly divided into 9 groups with 5 mice in each group: (1) saline, (2) free DOX saline (2 mg/kg), (3) free DOX+660 nm laser (2 mg/kg), (4) PCN-224 (12 mg/kg), (5) PCN-224+660 nm laser (12 mg/kg), (6) DOX@PCN-224 (14 mg/kg), (7) DOX@PCN-224+660 nm laser (14 mg/kg), (8) DOX@Gal-PCN-224 (14 mg/kg), and (9) DOX@Gal-PCN-224+660 nm laser (14 mg/kg). […] At the specified time points (days 3, 6, 9, 12, 15, 18, and 21), the tumor volume and mouse body weight of the experimental groups were measured. […]

COc1cccc2c1C(=O)c1c(O)c3c(c(O)c1C2=O)C[C@@](O)(C(=O)CO)C[C@@H]3O[C@H]1C[C@H](N)[C@H](O)[C@H](C)O1 [DOX, doxorubicin]
live and dead staining (red fluorescence = dead cells, apoptosis) (Huh7 cells [1]; Huh7, 660 nm light 10 min): only sporadic red fluorescence | live and dead staining (red fluorescence = dead cells, apoptosis) (Huh7 cells [1]; Huh7, no light): only sporadic red fluorescence | Cell viability (Huh7 cells [2]; Huh7, + 660 nm laser 10 min): 79% | Cell viability (Huh7 cells [2]; Huh7, no laser): 82% | Tumor inhibition efficiency (subcutaneous solid tumor): 49.8%
